Measurements as given in US10183938B2, “Geminal substituted quinuclidine amide compounds as agonists of α-7 nicotonic acetylcholine receptors” (AXOVANT SCIENCES GMBH, priority 2014, dated 2019).
Where a name gives a salt, the structure may show the parent alone.

target: human α7 nAChRs transiently expressed in Xenopus laevis oocytes (Homo sapiens (Human), UniProt P36544); test: Oocyte electrophysiology screen (TEVC); format: cell-based; conditions: 0.01 mM test compound, peak current relative to 0.2 mM ACh
Sequence (P36544 23-502 limits assumed): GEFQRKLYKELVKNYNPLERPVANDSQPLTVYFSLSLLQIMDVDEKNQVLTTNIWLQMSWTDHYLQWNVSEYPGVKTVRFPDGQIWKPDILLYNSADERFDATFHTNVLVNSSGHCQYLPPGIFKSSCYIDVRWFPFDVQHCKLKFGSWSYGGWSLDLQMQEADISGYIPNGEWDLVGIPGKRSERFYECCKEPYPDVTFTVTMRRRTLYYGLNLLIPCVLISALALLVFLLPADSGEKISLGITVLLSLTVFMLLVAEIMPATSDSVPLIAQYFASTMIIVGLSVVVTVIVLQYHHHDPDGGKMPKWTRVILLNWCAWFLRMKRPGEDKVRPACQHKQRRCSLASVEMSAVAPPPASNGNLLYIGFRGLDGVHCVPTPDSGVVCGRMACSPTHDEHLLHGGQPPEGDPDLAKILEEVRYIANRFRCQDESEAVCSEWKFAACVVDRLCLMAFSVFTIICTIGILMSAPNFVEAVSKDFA
Description: Oocyte Electrophysiology Screen (% ACh @ 10 μM Oocyte)
The Oocyte Electrophysiology Screen studies were performed under contract by HiQScreen Geneva, Switzerland. All experiments were carried out at human α7 nAChRs transiently expressed in Xenopus laevis oocytes using the method of cDNA expression. Currents evoked by acetylcholine or other agonist ligands were recorded using the standard two-electrode voltage-clamp configuration (TEVC). X. laevis oocytes were prepared and injected using standard procedures. Briefly, ovaries were harvested from X. laevis females that were deeply anesthetized and pithed following the animal rights rule from the Geneva canton. A small piece of ovary was isolated for immediate preparation while the remaining part was placed at 4° C. in a sterile Barth solution containing in mM: NaCl 88, KCl 1, NaHCO3 2.4, HEPES 10, MgSO4.7H2O 0.82, Ca(NO3)2.4H2O 0.33, CaCl2.6H2O 0.41, at pH 7.4, and supplemented with 20 μg/mL of kanamycin, 100 unit/mL penicillin and 100 μg/mL streptomycin. […] Cells were held at −80 mV. Data were filtered at 10 Hz, captured at 100 Hz and analyzed using proprietary data acquisition and analysis software running under Matlab (Mathworks Inc.).
Experimental Protocol and Analysis
After establishing a baseline transmembrane current, acetylcholine (ACh) was applied for 5 seconds at a concentration of 0.2 mM to establish a control ACh-evoked current response. Following a wash period of 90 s in OR2 medium (free of ACh), cells were then exposed for 30 s to the test compound applied at 0.01 mM. The same reference ACh test pulse was immediately given at the end of the compound exposure and again after 90 s of recovery in OR2 Medium (free of ACh or test compound). All data were determined in triplicate. The response evoked by the test compound was expressed as a percentage of that evoked by ACh: Response (% ACh)=100×(Itest/IACh) where Itest is the peak inward current measured during exposure to 0.01 mM of test compound and IACh is the peak inward current measured in the presence of ACh.

Row | Compound | % ACh @ 10 μM Oocyte [% ACh]
1 | O=C(N[C@@H]1C2CCN(CC2)C12CC2)c1ccc2occc2n1 [(R)-90, (R)—N-(1′-azaspiro[cyclopropane-1,2′-bicyclo[2.2.2]octan]-3′-yl)furo[3,2-b]pyridine-5-carboxamide hydrochloride] | 3
2 | O=C(N[C@@H]1C2CCN(CC2)C12CC2)c1cc2ccc(-n3ccnn3)cc2s1 [(R)-98, (R)—N-(1′-azaspiro[cyclopropane-1,2′-bicyclo[2.2.2]octan]-3′-yl)-6-(1H-1,2,3-triazol-1-yl)benzo[b]thiophene-2-carboxamide hydrochloride] | 3
3 | O=C(N[C@@H]1C2CCN(CC2)C12CC2)c1cc2ccc(F)c(C(F)(F)F)c2s1 [(R)-153, (R)-6-fluoro-N-(1′-azaspiro[cyclopropane-1,2′-bicyclo[2.2.2]octan]-3′-yl)-7-(trifluoromethyl)benzo[b]thiophene-2-carboxamide hydrochloride] | 114
4 | CC1(C)[C@H](NC(=O)c2cc3cccc(C#N)c3s2)C2CCN1CC2 [(R)-115, (R)-7-cyano-N-(2,2-dimethylquinuclidin-3-yl)benzo[b]thiophene-2-carboxamide hydrochloride] | 215
5 | Cc1cc2cc(C(=O)N[C@@H]3C4CCN(CC4)C3(C)C)ccc2o1 [(R)-38, (R)—N-(2,2-dimethylquinuclidin-3-yl)-2-methylbenzofuran-5-carboxamide hydrochloride] | 339
6 | O=C(N[C@@H]1C2CCN(CC2)C12CC2)c1cc2ccc(N3CCC(F)(F)CC3)cc2s1 [(R)-100, (R)-6-(4,4-difluoropiperidin-1-yl)-N-(1′-azaspiro[cyclopropane-1,2′-bicyclo[2.2.2]octan]-3′-yl)benzo[b]thiophene-2-carboxamide hydrochloride] | 1
7 | CC1(C)[C@@H](NC(=O)c2ccc3occc3c2)C2CCN1CC2 [(S)-6, (S)—N-(2,2-dimethylquinuclidin-3-yl)benzofuran-5-carboxamide hydrochloride] | 2
8 | CC1(C)[C@@H](NC(=O)c2cc3ccc(C4CC4)cc3s2)C2CCN1CC2 [(S)-18, (S)-6-cyclopropyl-N-(2,2-dimethylquinuclidin-3-yl)benzo[b]thiophene-2-carboxamide hydrochloride] | 1
9 | O=C(NC1C2CCN(CC2)C12CC2)c1cc2ccc(C(F)(F)F)cc2s1 (single isomer, unassigned; enantiomer2) [63b, N-(1′-azaspiro[cyclopropane-1,2′-bicyclo[2.2.2]octan]-3′-yl)-6-(trifluoromethyl)benzo[b]thiophene-2-carboxamide-enantiomer2] | 3
10 | CC1(C)[C@H](NC(=O)c2cc3ccc(N4CCC(F)(F)CC4)cc3s2)C2CCN1CC2 [(R)-45, (R)-6-(4,4-difluoropiperidin-1-yl)-N-(2,2-dimethylquinuclidin-3-yl)benzo[b]thiophene-2-carboxamide hydrochloride] | 1
11 | CC1(C)[C@@H](NC(=O)c2cc3ccc(C(F)(F)F)cc3s2)C2CCN1CC2 [(S)-10, (S)—N-(2,2-dimethylquinuclidin-3-yl)-6-(trifluoromethyl)benzo[b]thiophene-2-carboxamide hydrochloride] | 1
12 | COc1ccc2cc(C(=O)N[C@@H]3C4CCN(CC4)C3(C)C)sc2c1Cl [(R)-112, (R)-7-chloro-N-(2,2-dimethylquinuclidin-3-yl)-6-methoxybenzo[b]thiophene-2-carboxamide hydrochloride] | 234
13 | O=C(N[C@@H]1C2CCN(CC2)C12CC2)c1cnc2occc2c1 [(R)-89, (R)—N-(1′-azaspiro[cyclopropane-1,2′-bicyclo[2.2.2]octan]-3′-yl)furo[2,3-b]pyridine-5-carboxamide hydrochloride] | 0
14 | CC1(C)[C@@H](NC(=O)c2ccc3ccsc3c2)C2CCN1CC2 [(S)-5, (S)—N-(2,2-dimethylquinuclidin-3-yl)benzo[b]thiophene-6-carboxamide hydrochloride] | 9
15 | CC1(C)[C@@H](NC(=O)c2cc3cc(F)ccc3s2)C2CCN1CC2 [(S)-11, (S)—N-(2,2-dimethylquinuclidin-3-yl)-5-fluorobenzo[b]thiophene-2-carboxamide hydrochloride] | 9
16 | CS(=O)(=O)c1ccc2cc(C(=O)N[C@@H]3C4CCN(CC4)C34CC4)sc2c1 [(R)-103, (R)-6-(methylsulfonyl)-N-(1′-azaspiro[cyclopropane-1,2′-bicyclo[2.2.2]octan]-3′-yl)benzo[b]thiophene-2-carboxamide hydrochloride] | 2
17 | CC1(C)[C@@H](NC(=O)c2cc3cccnc3s2)C2CCN1CC2 [(S)-28, (S)—N-(2,2-dimethylquinuclidin-3-yl)thieno[2,3-b]pyridine-2-carboxamide hydrochloride] | 1
18 | Cc1nc2ccc(C(=O)N[C@@H]3C4CCN(CC4)C34CC4)cc2s1 [(R)-88, (R)-2-methyl-N-(1′-azaspiro[cyclopropane-1,2′-bicyclo[2.2.2]octan]-3′-yl)benzo[d]thiazole-6-carboxamide hydrochloride] | 133
19 | N#Cc1ccc2cc(C(=O)N[C@@H]3C4CCN(CC4)C34CC4)sc2c1 [(R)-104, (R)-6-cyano-N-(1′-azaspiro[cyclopropane-1,2′-bicyclo[2.2.2]octan]-3′-yl)benzo[b]thiophene-2-carboxamide hydrochloride] | 20
20 | CC1(C)[C@@H](NC(=O)c2cc3ccc(Cl)cc3s2)C2CCN1CC2 [(S)-12, (S)-6-chloro-N-(2,2-dimethylquinuclidin-3-yl)benzo[b]thiophene-2-carboxamide hydrochloride] | 3
21 | Cl.Cn1cnc2ccc(C(=O)N[C@@H]3C4CCN(CC4)C3(C)C)cc21 [(R)-206, (R)-N-(2,2-dimethylquinuclidin-3-yl)-1-methyl-1H-benzo[d]imidazole-6-carboxamide hydrochloride] | 0
22 | O=C(NC1C2CCN(CC2)C12CC2)c1cc2ccc(C(F)(F)F)cc2s1 (single isomer, unassigned; enantiomer1) [63a, N-(1′-azaspiro[cyclopropane-1,2′-bicyclo[2.2.2]octan]-3′-yl)-6-(trifluoromethyl)benzo[b]thiophene-2-carboxamide-enantiomer1] | 3
23 | CC1(C)[C@@H](NC(=O)c2cc3cc(C(F)(F)F)ccc3s2)C2CCN1CC2 [(S)-17, (S)—N-(2,2-dimethylquinuclidin-3-yl)-5-(trifluoromethyl)benzo[b]thiophene-2-carboxamide hydrochloride] | 1
24 | CC1(C)[C@H](NC(=O)c2cc3ccc(N4CCOCC4)cc3s2)C2CCN1CC2 [(R)-44, (R)—N-(2,2-dimethylquinuclidin-3-yl)-6-morpholinobenzo[b]thiophene-2-carboxamide hydrochloride] | 1

same assay, conditions: 0.01 mM test compound, peak current relative to 0.2 mM ACh; hydrochloride

Row | Compound | % ACh @ 10 μM Oocyte [% ACh]
25 | Cc1ccc2sc(C(=O)NC3C4CCN(CC4)C34CC4)cc2c1 (single isomer, unassigned; enantiomer1) [69a, 5-methyl-N-(1′-azaspiro[cyclopropane-1,2′-bicyclo[2.2.2]octan]-3′-yl)benzo[b]thiophene-2-carboxamide-enantiomer1 hydrochloride] | 162
26 | CC1(C)C(NC(=O)c2cc3ccccc3s2)C2CCN1CC2 (single isomer, unassigned; enantiomer2) [1b, N-(2,2-dimethylquinuclidin-3-yl)benzo[b]thiophene-2-carboxamide-enantiomer2 hydrochloride] | 2
27 | COc1ccc2sc(C(=O)NC3C4CCN(CC4)C34CC4)cc2c1 (single isomer, unassigned; enantiomer1) [74a, 5-methoxy-N-(1′-azaspiro[cyclopropane-1,2′-bicyclo[2.2.2]octan]-3′-yl)benzo[b]thiophene-2-carboxamide-enantiomer1 hydrochloride] | 32
28 | O=C(NC1C2CCN(CC2)C12CC2)c1cc2ccc(C3CC3)cc2s1 (single isomer, unassigned; enantiomer2) [71b, 6-cyclopropyl-N-(1′-azaspiro[cyclopropane-1,2′-bicyclo[2.2.2]octan]-3′-yl)benzo[b]thiophene-2-carboxamide-enantiomer2 hydrochloride] | 2
29 | O=C(NC1C2CCN(CC2)C12CC2)c1cc2cc(Cl)ccc2s1 (single isomer, unassigned; enantiomer1) [66a, 5-chloro-N-(1′-azaspiro[cyclopropane-1,2′-bicyclo[2.2.2]octan]-3′-yl)benzo[b]thiophene-2-carboxamide-enantiomer1 hydrochloride] | 2
